Reference: patent publication US20110015223A1, “Compounds and methods for treatment of cancer-related anemia” (FibroGen, Inc., priority 2006, published 2011)
Marks after values point to notes of the source that are not given here.

Experiments:
[1] = system: H-460-GFP human lung tumor-bearing nude mice (orthotopically xenografted); experiment: Plasma erythropoietin (EPO) by ELISA in nude mice with orthotopic H-460-GFP lung tumors (Example 3); format: in vivo; conditions: orthotopic H-460-GFP tumors; for plasma EPO levels compared to vehicle-treated control animals: in words, Compound A 20 or 60 mg/kg, Compounds C, D, E 20 mg/kg
Description: (§1) The effectiveness of administration of compounds of the present invention at preventing the development of anemia of cancer or at treating anemia of cancer in an animal model of cancer was examined. […] Genetically-engineered tumors of GFP-transfected H-460 cells were used in this study. The human H-460 lung cancer cell line used was obtained from the National Cancer Institute. […] Compounds were administered three-times per week
Plasma was isolated from these animals 6 hours following administration of the final dose of compound. Plasma erythropoietin (EPO) levels were determined by ELISA.

[2] = system: A549 human lung tumor-bearing nude mice; experiment: Plasma erythropoietin (EPO) by ELISA in nude mice with subcutaneous A549 lung tumors (Example 2); format: in vivo; conditions: for Mean [EPO]: four weeks, plasma 6 hours after final dose; for plasma EPO levels compared to vehicle-treated control animals: in words, Compound A 20 or 60 mg/kg, Compound C 20 mg/kg, Compound D 20 or 60 mg/kg as worded in text
Source text: (§2) Immuno-compromised athymic CD-1 nu/nu nude mice males (5-6 weeks old) were used in this study (Charles River Laboratories, Wilmington, Mass.). Animals were maintained in a HEPA-filtered environment during the experimental period. Cages, food, and bedding were autoclaved. Animal diets were obtained from Harlan Teklad (Madison, Wis.).
Compounds of the invention were formulated in an aqueous vehicle consisting of 0.1% (w/w) Polysorbate 80 (JT Baker) and 0.5% (w/w) high viscosity carboxymethyl cellulose sodium (Spectrum) to achieve a final 10 ml/kg dosing (oral gavage).
The A549 human lung cancer cell line was used. This cell line has been characterized extensively.
(§3) A stock tumor was developed by subcutaneoulsy injecting an A549 cell suspension into stock mice. The resulting tumor was maintained subcutaneously as tumor stock prior to use. Tumor implantation was performed when the stock tumors were in log phase of growth. […] Necrotic tissues were dissected away and viable tissues were cut into 1-2 mm^2 pieces. Tumor fragments were then transplanted subcutaneously to the right flank of the nude mice.
Administration of compounds of the present invention (administered three-times per week) was initiated when the inoculated tumors reached approximately 100 mm^3, and continued for four weeks thereafter.
Plasma was isolated from the animals 6 hours following administration of the final dose of compound. Plasma erythropoietin (EPO) levels were determined by ELISA.

[3] = system: H-460-GFP human lung tumor-bearing nude mice (orthotopically xenografted); experiment: RBC, HGB and HCT in nude mice with orthotopic H-460-GFP lung tumors (Example 3); format: in vivo; conditions: 20 mg/kg three-times per week; whole blood 6 hours after final dose; orthotopic H-460-GFP tumors; mean +/- SD
Description: as §1
Whole blood was collected from these animals 6 hours following administration of the final dose of compound. Various measurable blood parameters indicative of erythropoiesis and treatment of anemia (red blood cell count, hemoglobin, and hematocrit) were analyzed.

[4] = system: human H-460 lung cancer tumor-bearing nude mice; experiment: Blood parameters in nude mice with subcutaneous H-460 lung tumors (anemia of cancer, Example 1); format: in vivo; conditions: M, W, F x 4, subcutaneous H-460 tumors, study endpoint
Source text: as §2
Compounds of the invention were pre-formulated in an aqueous vehicle consisting of 0.1% (w/w) Polysorbate 80 (JT Baker) and 0.5% (w/w) high viscosity carboxymethyl cellulose sodium (Spectrum) to achieve a final 10 ml/kg dosing (oral gavage).
as §3, with “The human H-460 lung cancer cell line used” for “A stock tumor”, “obtained from the National Cancer Institute. […]” for “developed by subcutaneoulsy injecting an A549 cell suspension into stock mice.”, “maintained in nude mice” for “maintained”
Treatment (administration of compounds of the present invention) was started when the inoculated tumors reached approximately 100 mm^3, and continued for four weeks.
These include red blood cell counts, hemoglobin, hematocrit, mean corpuscular volume, mean corpuscular hemoglobin, mean corpuscular hemoglobin concentration, red blood cell distribution, reticulocytes, reticulocyte counts, and immature reticulocyte fraction.

[5] = system: OVCAR3 tumor-bearing female CB.17 SCID mice; experiment: Hematocrit in OVCAR3 ovarian tumor-bearing SCID mice (Example 5, FIG. 2); format: in vivo; conditions: in words (FIG. 2); 60 mg/kg; 29 days treatment
Source text: Tumors used in this study were OVCAR3 ovarian tumors. OVCAR3 tumor fragments (1 mm^3) were implanted subcutaneously into the flanks of female CB.17 SCID mice. The number of animals in each treatment group was 10. […] After 29 days treatment, animals were sacrificed and blood was collected for determination of hematocrit (HCT).

[6] = system: MDA-MB-435-GFP breast tumor-bearing female CD-1 nude mice; conditions: in words (FIG. 1); 20 mg/kg or 60 mg/kg; 33 days treatment; MDA-MB-435-GFP breast tumors
Description: The effectiveness of methods and compounds of the present invention at treating or preventing the development of anemia of cancer was examined as follows. In this study, experiments were performed essentially as described above in Example 1, with the following modifications. Tumors used in this study were MDA-MB-435-GFP breast tumors, and surgical orthotopic tumor fragment implantation was done directly into breast tissue of female CD-1 nude animals. The number of animals in each group was 15. […] After mean tumor volume in the vehicle control group exceeded 1 cm^3, animals were sacrificed (33 days treatment) and hematocrit was measured.

[7] = 20 mg/kg three-times per week, plasma 6 hours after final dose
[8] = 20 mg/kg oral gavage three-times per week

| Molecule | Average [EPO] [1, 7] [pg/mL] | plasma EPO levels compared to vehicle-treated control animals [1] | Mean [EPO] [2, 8] | plasma EPO levels compared to vehicle-treated control animals [2] | HCT [3] | HGB [3] [g/dL] | RBC [3] | Abs Retic, reticulocyte count ([4]; 20 mg/kg PO) | HCT, hematocrit ([4]; 20 mg/kg PO) [%] | HGB, hemoglobin ([4]; 20 mg/kg PO) [g/dL] | IRF, immature RET fraction ([4]; 20 mg/kg PO) | MCH, mean corpuscular hemoglobin ([4]; 20 mg/kg PO) [pg] | MCHC, MCH concentration ([4]; 20 mg/kg PO) [g/dL] | MCV, mean corpuscular volume ([4]; 20 mg/kg PO) [fL] | RBC, red blood cells ([4]; 20 mg/kg PO) [µL⁻¹] | RDW, RBC distribution width ([4]; 20 mg/kg PO) [%] | RET, reticulocytes ([4]; 20 mg/kg PO) [%] | hematocrit levels in OVCAR3 tumor-bearing animals [5] | other results |
| --- | --- | --- | --- | --- | --- | --- | --- | --- | --- | --- | --- | --- | --- | --- | --- | --- | --- | --- | --- |
| COc1ccc(Oc2ccc3c(O)c(C(=O)NCC(=O)O)ncc3c2)cc1 [Cmpd C, {[4-Hydroxy-7-(4-methoxy-phenoxy)-isoquinoline-3-carbonyl]-amino}-acetic acid] | 5898 | elevated | 3581* pg/ml | increased | 47.2 +/− 5.6% | 16.3 ± 1.6 | 9.8 +/− 1.1 | 457 | 41.1 | 14.0 | 0.56 | 14.9 | 34.1 | 43.8 | 9.36e+06 | 22.3 | 4.9 | – | – |
| rhEPO: recombinant human erythropoietin (EPO) | – | – | – | – | – | – | – | – | – | – | – | – | – | – | – | – | – | – | Average [EPO] ([1]; rhEPO group, dose not given, plasma): 215 pg/mL |
| Cc1nc(C(=O)NCC(=O)O)c(O)c2ccc(Oc3ccccc3)cc12 [Cmpd D, [(4-Hydroxy-1-methyl-7-phenoxy-isoquinoline-3-carbonyl)-amino]-acetic acid] | 2176 | elevated | 489 pg/mL | increased | 45.6 +/− 1.8% | 15.4 ± 0.6 | 9.3 +/− 0.5 | – | – | – | – | – | – | – | – | – | – | increased | Mean [EPO] ([2]; 6 mg/kg oral gavage three-times per week): 455 pg/mL |
| C[C@H](NC(=O)c1ncc2cc(Oc3ccccc3)ccc2c1O)C(=O)O [Cmpd B, (S)-2-[(4-Hydroxy-7-phenoxy-isoquinoline-3-carbonyl)-amino]-propionic acid] | – | – | – | – | – | – | – | 552 | 37.7 | 12.7 | 0.56 | 14.5 | 33.7 | 43.0 | 8.78e+06 | 21.7 | 6.3 | – | Abs Retic, reticulocyte count ([4]; 6 mg/kg PO): 653; HCT, hematocrit ([4]; 6 mg/kg PO): 37.7%; HGB, hemoglobin ([4]; 6 mg/kg PO): 12.7 g/dL; IRF, immature RET fraction ([4]; 6 mg/kg PO): 0.64; MCH, mean corpuscular hemoglobin ([4]; 6 mg/kg PO): 14.6 pg; MCHC, MCH concentration ([4]; 6 mg/kg PO): 33.8 g/dL; MCV, mean corpuscular volume ([4]; 6 mg/kg PO): 43.2 fL; RBC, red blood cells ([4]; 6 mg/kg PO): 8.71e+06 µL⁻¹; RDW, RBC distribution width ([4]; 6 mg/kg PO): 21.4%; RET, reticulocytes ([4]; 6 mg/kg PO): 7.5% |
| O=C(O)CNC(=O)c1nc(Cl)c2ccccc2c1O [Cmpd A] | – | – | – | – | – | – | – | 559 | 40.4 | 13.3 | 0.63 | 15.1 | 33.1 | – | – | 21.3 | 6.4 | increased | hematocrit levels compared to non-treated control animals with cancer [6]: increased; Abs Retic, reticulocyte count ([4]; 60 mg/kg PO): 539; HCT, hematocrit ([4]; 60 mg/kg PO): 39.5%; HGB, hemoglobin ([4]; 60 mg/kg PO): 13.5 g/dL; IRF, immature RET fraction ([4]; 60 mg/kg PO): 0.65; MCH, mean corpuscular hemoglobin ([4]; 60 mg/kg PO): 15.6 pg; MCHC, MCH concentration ([4]; 60 mg/kg PO): 34.2 g/dL; RDW, RBC distribution width ([4]; 60 mg/kg PO): 23.6%; RET, reticulocytes ([4]; 60 mg/kg PO): 6.5% |
